In PubChem BioAssay (NCI):
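Grown in 96-well plates, cells were treated for 48 hours with each compound at five concentrations. Insufficient inhibition: endpoint recorded as highest concentration tested. GI50 = concentration required for 50% inhibition of growth. The concentration for full growth arrest is given as TGI.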

Key:
Test in all cases: NCI-60 cell line screen, 48 h
[1] = system: 786-0 renal
[2] = system: A498 renal
[3] = system: A549 NSCLC
[4] = system: ACHN renal
[5] = system: BT-549 breast
[6] = system: CAKI-1 renal
[7] = system: CCRF-CEM leukemia
[8] = system: COLO 205 colon
[9] = system: DU-145 prostate
[10] = system: EKVX NSCLC
[11] = system: HCT-116 colon
[12] = system: HCT-15 colon
[13] = system: HL-60(TB) leukemia
[14] = system: HOP-62 NSCLC
[15] = system: HS 578T breast
[16] = system: HT29 colon
[17] = system: K-562 leukemia
[18] = system: KM12 colon
[19] = system: LOX IMVI melanoma
[20] = system: M14 melanoma
[21] = system: MCF7 breast
[22] = system: MDA-MB-231 breast
[23] = system: MDA-MB-435
[24] = system: MDA-N
[25] = system: MOLT-4 leukemia
[26] = system: NCI-H226 lung
[27] = system: NCI-H23 lung
[28] = system: NCI-H460 lung
[29] = system: NCI-H522 lung
[30] = system: NCI/ADR-RES ovarian
[31] = system: OVCAR-3 ovarian
[32] = system: OVCAR-4 ovarian
[33] = system: OVCAR-5 ovarian
[34] = system: OVCAR-8 ovarian
[35] = system: PC-3 prostate
[36] = system: SF-268 CNS
[37] = system: SF-295 CNS
[38] = system: SF-539 CNS
[39] = system: SK-MEL-2 melanoma
[40] = system: SK-MEL-28 melanoma
[41] = system: SK-MEL-5 melanoma
[42] = system: SN12C renal
[43] = system: SNB-19 CNS
[44] = system: SNB-75 CNS
[45] = system: SR leukemia
[46] = system: SW-620 colon
[47] = system: T-47D breast
[48] = system: TK-10 renal
[49] = system: UACC-257 melanoma
[50] = system: UO-31 renal
[51] = system: HOP-92 NSCLC
[52] = system: IGROV1 ovarian
[53] = system: RPMI-8226 leukemia
[54] = system: SK-OV-3 ovarian
[55] = system: U251 CNS
[56] = system: UACC-62 melanoma

`CCC(Cc1cnc2nc(N)nc(N)c2n1)c1ccc(C(=O)NC(CCC(=O)O)C(=O)O)cc1` (stereo unspecified) gave a TGI [1] greater than 100 µM, a TGI [2] greater than 100 µM and a TGI [3] greater than 100 µM. For the same compound, the TGI [4] was greater than 100 µM, the TGI [5] was greater than 100 µM and the TGI [6] was greater than 100 µM. For the same compound, the TGI [7] was greater than 100 µM, the TGI [8] was greater than 100 µM and the TGI [9] was greater than 100 µM. For the same compound, the GI50 [10] was 0.0196 µM, the TGI [10] was greater than 100 µM and the TGI [11] was greater than 100 µM. For the same compound, the TGI [12] was greater than 100 µM, the TGI [13] was greater than 100 µM and the TGI [14] was greater than 100 µM. It also gave a TGI [15] greater than 100 µM, a TGI [16] greater than 100 µM and a TGI [17] greater than 100 µM. For the same compound, the TGI [18] was greater than 100 µM, the TGI [19] was greater than 100 µM and the GI50 [20] was 34.5 µM. The TGI [20] was greater than 100 µM, the TGI [21] was greater than 100 µM and the GI50 [22] was greater than 100 µM. The TGI [22] was greater than 100 µM, the TGI [23] was greater than 100 µM and the TGI [24] was greater than 100 µM. The TGI [25] was greater than 100 µM, the GI50 [26] was greater than 100 µM and the TGI [26] was greater than 100 µM. The TGI [27] was greater than 100 µM, the TGI [28] was greater than 100 µM and the TGI [29] was greater than 100 µM. It also gave a TGI [30] greater than 100 µM, a GI50 [31] greater than 100 µM and a TGI [31] greater than 100 µM. The GI50 [32] was greater than 100 µM, the TGI [32] was greater than 100 µM and the TGI [33] was greater than 100 µM. The TGI [34] was greater than 100 µM, the TGI [35] was greater than 100 µM and the TGI [36] was greater than 100 µM. It also gave a TGI [37] greater than 100 µM, a TGI [38] of 1.28 µM and a GI50 [39] greater than 100 µM. The TGI [39] was greater than 100 µM, the GI50 [40] was greater than 100 µM and the TGI [40] was greater than 100 µM. The TGI [41] was greater than 100 µM, the TGI [42] was greater than 100 µM and the GI50 [43] was 0.0134 µM. The TGI [43] was greater than 100 µM, the TGI [44] was greater than 100 µM and the TGI [45] was greater than 100 µM. For the same compound, the TGI [46] was greater than 100 µM, the TGI [47] was greater than 100 µM and the TGI [48] was greater than 100 µM. It also gave a TGI [49] greater than 100 µM and a TGI [50] greater than 100 µM.
With `O=C(O)CN1CCNCCNCC1` the TGI [1] was greater than 100 µM, the TGI [2] was greater than 100 µM and the TGI [3] was greater than 100 µM. The TGI [4] was greater than 100 µM, the TGI [5] was greater than 100 µM and the TGI [6] was greater than 100 µM. It also gave a TGI [7] greater than 100 µM, a TGI [8] greater than 100 µM and a TGI [9] greater than 100 µM. For the same compound, the TGI [10] was greater than 100 µM, the TGI [11] was greater than 100 µM and the TGI [12] was greater than 100 µM. The TGI [13] was 68.5 µM, the TGI [14] was greater than 100 µM and the TGI [51] was greater than 100 µM. For the same compound, the TGI [15] was greater than 100 µM, the TGI [16] was greater than 100 µM and the TGI [52] was greater than 100 µM. The TGI [17] was greater than 100 µM, the TGI [18] was greater than 100 µM and the TGI [19] was greater than 100 µM. For the same compound, the TGI [20] was greater than 100 µM, the TGI [21] was greater than 100 µM and the TGI [22] was greater than 100 µM. The TGI [23] was greater than 100 µM, the TGI [24] was greater than 100 µM and the TGI [25] was greater than 100 µM. For the same compound, the TGI [26] was greater than 100 µM, the TGI [28] was greater than 100 µM and the TGI [30] was greater than 100 µM. It also gave a TGI [31] greater than 100 µM, a TGI [32] greater than 100 µM and a TGI [33] greater than 100 µM. It also gave a TGI [34] greater than 100 µM, a TGI [35] greater than 100 µM and a TGI [53] greater than 100 µM. For the same compound, the TGI [38] was greater than 100 µM, the TGI [39] was greater than 100 µM and the TGI [40] was greater than 100 µM. For the same compound, the TGI [41] was greater than 100 µM, the TGI [54] was greater than 100 µM and the TGI [42] was greater than 100 µM. The TGI [43] was greater than 100 µM, the TGI [44] was greater than 100 µM and the TGI [45] was greater than 100 µM. The TGI [46] was greater than 100 µM, the TGI [47] was greater than 100 µM and the TGI [48] was greater than 100 µM. The TGI [55] was greater than 100 µM, the TGI [49] was greater than 100 µM and the TGI [56] was greater than 100 µM. It also gave a TGI [50] greater than 100 µM.
